Test results as given in patent US10189818B2, “5-(5-(2-(3-aminopropdoxy)-6-methoxyphenyl)-1H-pyrazol-3-ylamino)pyrazine-2-carbonitfile (S)-lactate monohydrate” (priority 2015, dated 2019).

Key:
[1] = Solubility screen of the salts in aqueous acid solution, HPLC; format: physicochemical; conditions: thermodynamic from solid, room temperature, one week
Method: Prepare an aqueous solution (approximately 0.1 M) of selected acid. Add solid 5-(5-(2-(3-aminopropoxy)-6-methoxyphenyl)-1H-pyrazol-3-ylamino)pyrazine-2-carbonitrile (20-26 mg). Agitate slurry at room temperature for one week. Measure the 5-(5-(2-(3-aminopropoxy)-6-methoxyphenyl)-1H-pyrazol-3-ylamino)pyrazine-2-carbonitrile concentration by HPLC. Aliquots (˜200 μL) are withdrawn from the suspensions through 0.45 micron Millex® PTFE filters. Dilute samples with mobile phase and analyze by HPLC. Analyze the samples with an Agilent 1100 HPLC (Instrument 800) with a Zorbax Bonus RP (75 mm×4.6 mm, 3.5 micron particle size) column, or equivalent. The mobile phase consists of 20% of a 0.1% TFA in acetonitrile mixture and 80% of a 0.1% TFA in water mixture. Instrument conditions are as follows: flow rate 1.0 mL/minute, wavelength of detection 290 nm, 3 μL injection volume, 10 minute run time, and column temperature of 30° C. Prepare a stock solution of 5-(5-(2-(3-aminopropoxy)-6-methoxyphenyl)-1H-pyrazol-3-ylamino)pyrazine-2-carbonitrile in 50/50 water/acetonitrile and dilute with 50/50 water/acetonitrile to give concentrations suitable for quantification of the solubility samples. Dilute the samples with 50/50 acetonitrile/water. Use a dilution factor of 200 for the samples. Measure the pH of each solution and analyze the solid residues by microscopy and XRPD (wet and dry) for crystallinity and crystal form.
Prepare a (S)-lactic acid aqueous solution (0.104 M, 1 mL). Add solid 5-(5-(2-(3-aminopropoxy)-6-methoxyphenyl)-1H-pyrazol-3-ylamino)pyrazine-2-carbonitrile (21.7 mg, 0.059 mmol). Agitate the slurry at room temperature for one week. Measure the 5-(5-(2-(3-aminopropoxy)-6-methoxyphenyl)-1H-pyrazol-3-ylamino)pyrazine-2-carbonitrile concentration by HPLC. Withdraw an aliquot (˜200 μL) from the suspension through 0.45 micron Millex® PTFE filters. Dilute the samples with mobile phase and analyze by HPLC. Analyze the samples with an Agilent 1100 HPLC (Instrument 800) with a Zorbax Bonus RP (75 mm×4.6 mm, 3.5 micron particle size) column, or equivalent. The mobile phase consists of 20% of a 0.1% TFA in acetonitrile mixture and 80% of a 0.1% TFA in water mixture. Instrument conditions are as follows: flow rate 1.0 mL/minute, wavelength of detection 290 nm, 3 μL injection volume, 10 minute run time, and column temperature of 30° C. Prepare a stock solution of 5-(5-(2-(3-aminopropoxy)-6-methoxyphenyl)-1H-pyrazol-3-ylamino)pyrazine-2-carbonitrile in 50/50 water/acetonitrile and dilute with 50/50 water/acetonitrile to give concentrations suitable for quantification of the solubility samples. Dilute the samples with 50/50 acetonitrile/water. Use a dilution factor of 200 for the samples. […]

[2] = Pharmacokinetic comparison after 1-hour IV infusion, plasma concentrations by LC-MS/MS; format: in vivo, male Sprague-Dawley rats; conditions: rat; for concentration at 0.25 h / concentration at 0.5 h / concentration at 1 h / concentration at 1.25 h / concentration at 1.5 h / concentration at 2 h / concentration at 4 h / concentration at 8 h / concentration at 24 h: male, Sprague-Dawley, single 10 mg/kg 1-hour intravenous infusion; for concentration at 0.25 h: 0.25 hours after start of infusion; for concentration at 0.5 h: 0.5 hours after start of infusion; for concentration at 1 h: 1 hour after start of infusion; for concentration at 1.25 h: 1.25 hours after start of infusion; for concentration at 1.5 h: 1.5 hours after start of infusion; for concentration at 2 h: 2 hours after start of infusion; for concentration at 4 h: 4 hours after start of infusion; for concentration at 8 h: 8 hours after start of infusion; for concentration at 24 h: 24 hours after start of infusion; for Difference in blood plasma levels between the two salt forms (2 sample t-test, pooled error): 10 mg/kg IV infusion for 1 hour, mesylate formulated in Captisol, (S)-lactate in trehalose
Method: Evaluate the noncompartmental pharmacokinetic parameters of the methanesulfonic acid monohydrate and (S)-lactate monohydrate salts of 5-(5-(2-(3-aminopropoxy)-6-methoxyphenyl)-1H-pyrazol-3-ylamino)pyrazine-2-carbonitrile after intravenous (IV) infusion of 10 mg/kg of the methanesulfonic acid monohydrate salt (10 mg/kg, formulated in Captisol®) or of the (S)-lactate monohydrate salt (formulated in trehalose) into the femoral vein cannula of fed male Sprague-Dawley rats for 1 hour. Collect blood samples over 24 hours from 6 animals/group. Collect blood samples into tubes containing K3EDTA at 0.25, 0.5, 1, 1.25, 1.5, 2, 4, 8, and 24 hours after the start of infusion. Centrifuge the samples to obtain plasma, and freeze until analyzed. Determine plasma concentrations using a validated LC-MS/MS assay.
Dispense WFI equivalent to approximately 80% of the final batch volume. Warm the WFI to 40° C.±3° C. and transfer to the manufacturing vessel. Weigh the required amount of active pharmaceutical ingredient and after ensuring that the WFI temperature is still within the specified range, quantitatively transfer the active pharmaceutical ingredient into the manufacturing vessel while stirring. Stir until the active pharmaceutical ingredient has dissolved yielding a clear yellow solution, stirring for no longer than 30 minutes. Add trehalose and polysorbate 80 to the manufacturing vessel. Stir until dissolved. Measure the pH of the solution and adjust to pH 4.4±0.3 with lactic acid (Note: If using lactic acid 88%-92% solution, titrate slowly and cautiously as small quantities can produce large changes in pH, or prepare a 10% solution of lactic acid for pH adjustment). If necessary, and only if the pH drops below the lower limit during adjustment, add 10% NaOH solution to bring the pH back into range. Add WFI to the manufacturing vessel to bring the solution to the final batch weight which is calculated based on the desired batch volume and the density of the solution. Measure the pH of the solution and adjust, if necessary, to pH 4.4±0.3 with lactic acid or 10% NaOH. The solution is filtered through a sterile 0.22 micron PVDF membrane (Millipore Durapore®) into a sterile receiving vessel. Fill the drug product into sterile vials. Upon completion of filling, stopper and seal vials. If not dosed within about 4 hours, store all vials at −20° C.
Dispense WFI equivalent to approximately 80% of the final batch volume into the manufacturing vessel. Weigh the required amount of Captisol® and transfer to the manufacturing vessel. Stir until dissolved. Weigh the required amount of active pharmaceutical ingredient and form a slurry by adding WFI to the active pharmaceutical ingredient with swirling until wetted. Transfer the slurry to the stirring Captisol® solution. Rinse the active pharmaceutical ingredient with WFI (3×) and add the rinses to the stirring bulk solution. Stir until the active pharmaceutical ingredient has been dispersed. Stir for no longer than 60 minutes. Some particles may be visible in the manufacturing vessel after stirring for 60 minutes. Maintain the pH of the solution between 4.0-6.0. If the pH drops below the lower limit, 10% NaOH solution may be added to bring the pH into range. Add WFI to the manufacturing vessel to bring the solution to the final batch weight which is calculated based on the desired batch volume and the density of the solution. Measure the pH of the solution and adjust, if necessary, to pH 4.0-6.0 with 10% NaOH. Filter the solution through a sterile 0.22 micron PVDF membrane (Millipore Durapore®) into a sterile receiving vessel. Fill the drug product into sterile vials. Upon completion of filling, stopper and seal the vials. If not dosed within about 4 hours, store all vials at −20° C.

[3] = Stability comparison of the salt forms (Table 2); format: physicochemical; conditions: salt form comparison
[4] = aqueous buffer, water solubility comparison, slurry in approx. 0.1 M aqueous acid

With `COc1cccc(OCCCN)c1-c1cc(Nc2cnc(C#N)cn2)n[nH]1.C[C@H](O)C(=O)O` [(S)-Lactate Monohydrate, 5-(5-(2-(3-Aminopropoxy)-6-methoxyphenyl)-1H-pyrazol-3-ylamino)pyrazine-2-carbonitrile (S)-lactate Monohydrate] the solubility at 1 week ([1]; aqueous (S)-lactic acid solution, pH 2.46, aqueous buffer, in water, measured at a pH of 2.46, 0.104 M (S)-lactic acid) was over 20000 µg/mL, the solubility at 1 week ([1]; aqueous solution of the selected acid, aqueous buffer, water solubility comparison, slurry in approx. 0.1 M aqueous acid) was over 20000 µg/mL and the concentration at 0.25 h ([2]; plasma) was 1110 ng/mL. The concentration at 0.5 h ([2]; plasma) was 1180 ng/mL, the concentration at 1 h ([2]; plasma) was 1140 ng/mL and the concentration at 1.25 h ([2]; plasma) was 405 ng/mL. It also gave a concentration at 1.5 h ([2]; plasma) of 283 ng/mL, a concentration at 2 h ([2]; plasma) of 217 ng/mL and a concentration at 4 h ([2]; plasma) of 73.8 ng/mL. The concentration at 8 h ([2]; plasma) was 28.6 ng/mL, the concentration at 24 h ([2]; plasma) was 2.6 ng/mL and the “Difference in blood plasma levels between the two salt forms (2 sample t-test, pooled error)” value [2] was “no significant difference”. For the same molecule, the Stability [3] was “Satisfactory”.
With `COc1cccc(OCCCN)c1-c1cc(Nc2cnc(C#N)cn2)n[nH]1.Cl.Cl` [Di-HCl, 5-(5-(2-(3-aminopropoxy)-6-methoxyphenyl)-1H-pyrazol-3-ylamino)pyrazine-2-carbonitrile di-HCl salt] the solubility at 1 week [1, 4] was 107 µg/mL and the Stability [3] was “Unstable”.
`COc1cccc(OCCCN)c1-c1cc(Nc2cnc(C#N)cn2)n[nH]1.CS(=O)(=O)O.O` [Methanesulfonic acid Monohydrate, 5-(5-(2-(3-aminopropoxy)-6-methoxyphenyl)-1H-pyrazol-3-ylamino)pyrazine-2-carbonitrile methanesulfonic acid monohydrate salt] showed a solubility at 1 week [1, 4] of 6630 µg/mL, a concentration at 0.25 h ([2]; in vivo) of 1060 ng/mL and a concentration at 0.5 h ([2]; in vivo) of 1100 ng/mL. It also gave a concentration at 1 h ([2]; in vivo) of 930 ng/mL, a concentration at 1.25 h ([2]; in vivo) of 319 ng/mL and a concentration at 1.5 h ([2]; in vivo) of 249 ng/mL. The concentration at 2 h ([2]; in vivo) was 178 ng/mL, the concentration at 4 h ([2]; in vivo) was 67.5 ng/mL and the concentration at 8 h ([2]; in vivo) was 30.3 ng/mL. The concentration at 24 h ([2]; in vivo) was 3 ng/mL, the “Difference in blood plasma levels between the two salt forms (2 sample t-test, pooled error)” value [2] was “no significant difference” and the Stability [3] was “Satisfactory”.
